Series [1] addresses T1, Adenosine receptor A2a (Cavia porcellus, UniProt P46616).
Description: Antagonism of cyclic [3H]AMP accumulation in guinea pig cerebral cortical slices (elicited by 15 uM 2-chloroadenosine at adenosine A2 receptor)
Series [2] addresses T2, Adenosine receptor A1 (Rattus norvegicus, UniProt P25099).
T2 sequence (P25099 whole entry): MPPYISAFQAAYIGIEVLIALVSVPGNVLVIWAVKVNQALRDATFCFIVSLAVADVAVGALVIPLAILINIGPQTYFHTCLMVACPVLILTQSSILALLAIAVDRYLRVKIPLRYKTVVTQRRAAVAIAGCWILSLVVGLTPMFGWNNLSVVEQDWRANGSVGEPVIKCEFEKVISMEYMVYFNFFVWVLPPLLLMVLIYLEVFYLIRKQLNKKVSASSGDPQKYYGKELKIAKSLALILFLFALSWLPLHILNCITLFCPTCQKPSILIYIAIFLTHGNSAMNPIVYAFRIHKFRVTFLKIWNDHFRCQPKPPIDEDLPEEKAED
Put plainly: Antagonism of binding of 1 nM [3H]cyclohexyladenosine to adenosine A1 receptors on rat cortical membranes. Type of series: cell membranes, Membrane.

Series [3] concerns the target T1, Adenosine receptor A2a. Put plainly: Antagonism of cyclic [3H]AMP accumulation elicited by 15 uM 2-chloroadenosine in [3H]adenine-labeled guinea pig cerebral cortical slices at A2 receptor. Type of series: functional.
Series [4] in a line: Solubility in water. Type of series: physicochemical. The conditions noted are these: read-out: S.

≈ marks a conversion by molar mass, not a printed value.

T1 sequence (P46616 whole entry): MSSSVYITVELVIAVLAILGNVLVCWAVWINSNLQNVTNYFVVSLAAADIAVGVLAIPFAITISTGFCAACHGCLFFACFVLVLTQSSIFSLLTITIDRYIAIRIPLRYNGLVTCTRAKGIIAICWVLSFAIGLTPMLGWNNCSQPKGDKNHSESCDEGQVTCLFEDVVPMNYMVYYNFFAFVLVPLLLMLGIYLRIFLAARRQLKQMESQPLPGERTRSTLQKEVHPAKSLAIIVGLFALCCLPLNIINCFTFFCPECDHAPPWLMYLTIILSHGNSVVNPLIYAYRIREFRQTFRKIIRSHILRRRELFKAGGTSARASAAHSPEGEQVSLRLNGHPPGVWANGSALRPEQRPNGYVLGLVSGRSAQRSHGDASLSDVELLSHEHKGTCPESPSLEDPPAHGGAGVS

In general, Ki refers to the dissociation constant of the complex between target and ligand, obtained from inhibition or displacement. Lower therefore signals tighter binding. Take `CC(C)CCn1c(=O)c2[nH]c(-c3ccc(S(=O)(=O)O)cc3)nc2n(CC(C)C)c1=O`: the Ki was found to be 7000 nM in series [1] and 3500 nM in series [2].
With `Cn1c(=O)c2[nH]c(-c3cccc(O)c3)nc2n(C)c1=O`, the figures for the Ki in series [1] and in series [2] were 1000 nM and 340 nM, respectively.
The matching figures for `Cn1c(=O)c2nc(-c3ccccc3C(=O)O)[nH]c2n(C)c1=O`: above 30000 nM and above 50000 nM.
The matching figures for `CCCn1c(=O)c2[nH]c(-c3ccc(S(=O)(=O)O)cc3)nc2n(CCC)c1=O`: 710 nM and 210 nM.
`Cn1c(=O)c2[nH]c(-c3ccccc3)nc2n(C)c1=O` [8-PHENYL THEOPHYLLINE] had a Ki in series [1] of 550 nM.
One may read the EC50 as the concentration giving half of the maximal effect. The low end stands for an effect from little substance, the high end for a need for much substance. The molecule `Nc1nc(Cl)nc2c1ncn2[C@@H]1O[C@H](CO)[C@@H](O)[C@H]1O` displayed an EC50 in series [3] of 8000 nM.
Regarding `Cn1c(=O)c2c(nc(-c3ccccc3)n2C)n(C)c1=O`, the Ki in series [1] is 27000 nM; in series [2], 17000 nM.
`CCCn1c(=O)c2[nH]c(-c3ccc(Cl)cc3N)nc2n(CCC)c1=O`: the values for the Ki in series [1] and in series [2] were 1000 nM and 2.5 nM, respectively.
For `Cn1c(=O)c2nc(-c3ccccc3N)[nH]c2n(C)c1=O`, the Ki was 1700 nM in series [1] and 850 nM in series [2].
The matching figures for `CC(C)CCn1c(=O)c2[nH]cnc2n(CC(C)C)c1=O`: above 150000 nM and 13000 nM.
Regarding `Cn1c(=O)c2[nH]c(-c3ccccc3O)nc2n(C)c1=O`, the Ki in series [1] is 1700 nM; in series [2], 750 nM.
Consider `Cn1c(=O)c2[nH]c(-c3cccc(C(=O)O)c3)nc2n(C)c1=O`, for which the Ki is 15000 nM in series [1] and 32000 nM in series [2].
`CCCn1c(=O)c2nc[nH]c2n(CCC)c1=O` showed a Ki in series [2] of 700 nM.
In the case of `CC(C)CCn1c(=O)c2nc(-c3ccccc3)[nH]c2n(CC(C)C)c1=O`, the Ki is above 10000 nM in series [1] and 1800 nM in series [2]. The solubility in series [4] was 10 µM (≈ 3.54 µg/mL).
The molecule `Cn1c(=O)c2[nH]c(-c3ccc(S(=O)(=O)O)cc3)nc2n(C)c1=O` had a Ki in series [1] of 6300 nM. The solubility in series [4] was above 20000 µM.
Consider `Cn1c(=O)c2[nH]c(-c3cccc(N)c3)nc2n(C)c1=O`, for which the Ki in series [1] was determined as 900 nM; in series [2], 1100 nM.
Consider `Cn1c(=O)c2[nH]c(-c3ccc(C(=O)O)cc3)nc2n(C)c1=O`, for which the affinity in series [1], expressed as Ki, was 2500 nM. The solubility in series [4] is 90 µM (≈ 27 µg/mL).
Regarding `Cn1c(=O)c2[nH]c(-c3ccc(N)cc3)nc2n(C)c1=O`, the Ki in series [1] came to 130 nM; in series [2] it was 230 nM.
Molecule `CCCn1c(=O)c2nc(-c3ccc(C(=O)O)cc3)[nH]c2n(CCC)c1=O` registered a Ki in series [2] of 170 nM.
Take `Cn1c(=O)c2nc(-c3ccc(O)cc3)[nH]c2n(C)c1=O`: the Ki in series [1] was found to be 130 nM; in series [2], 50 nM. The solubility in series [4] turned out to be 5 µM (≈ 1.36 µg/mL).
For `CCCn1c(=O)c2nc(-c3ccc(O)cc3)[nH]c2n(CCC)c1=O`, the figures for the Ki in series [1] and in series [2] were 50 nM and 2.9 nM, respectively.
Turning to `Cc1nc2c(=O)n(C)c(=O)n(C)c2[nH]1`, the inhibitory constant (Ki) stood at 14000 nM in series [1] and 6500 nM in series [2].

Source of the values: ChEMBL document CHEMBL1123072, “1,3-Dialkyl-8-(p-sulfophenyl)xanthines: potent water-soluble antagonists for A1- and A2-adenosine receptors” (J Med Chem, 1985).
